Details: Liquid, Falling or rolling sphere viscometry

Cc1ccc(C)cc1 [1,4-dimethylbenzene]
viscosity [mPa·s]
Details | 313.15 K | 333.15 K | 353.15 K | 373.15 K | 393.15 K | 413.15 K | 433.15 K | 453.15 K | 473.15 K
100 kPa | 0.499 | 0.409 | 0.34 | 0.292 | – | – | – | – | –
800 kPa | 0.5029 | 0.412 | 0.346 | 0.297 | 0.254 | 0.221 | 0.192 | 0.168 | –
1600 kPa | 0.51 | 0.414 | 0.35 | 0.3 | 0.258 | 0.223 | 0.197 | 0.17 | 0.159
2400 kPa | 0.516 | 0.417 | 0.356 | 0.303 | 0.262 | 0.226 | 0.201 | 0.172 | 0.163
3200 kPa | 0.521 | 0.419 | 0.361 | 0.305 | 0.266 | 0.228 | 0.206 | 0.175 | 0.167

CC(=O)O [acetic acid]
viscosity [mPa·s]
Details | 313.15 K | 333.15 K | 353.15 K | 373.15 K | 393.15 K | 413.15 K | 433.15 K | 453.15 K | 473.15 K
100 kPa | 0.903 | 0.713 | 0.574 | 0.471 | – | – | – | – | –
800 kPa | 0.91 | 0.72 | 0.582 | 0.478 | 0.394 | 0.333 | 0.281 | 0.244 | –
1600 kPa | 0.917 | 0.727 | 0.59 | 0.486 | 0.402 | 0.34 | 0.287 | 0.251 | 0.213
2400 kPa | 0.924 | 0.735 | 0.598 | 0.494 | 0.41 | 0.347 | 0.294 | 0.258 | 0.22
3200 kPa | 0.932 | 0.743 | 0.605 | 0.502 | 0.418 | 0.354 | 0.302 | 0.264 | 0.226

CCCCCCCCCC [decane]
Details | viscosity [mPa·s]
313.15 K, 100 kPa | 0.7051
323.15 K, 100 kPa | 0.6356
333.15 K, 100 kPa | 0.5646
333.15 K, 800 kPa | 0.5732
333.15 K, 1600 kPa | 0.5714
333.15 K, 2400 kPa | 0.5756
333.15 K, 3200 kPa | 0.5792
343.15 K, 100 kPa | 0.5069
353.15 K, 100 kPa | 0.4514
363.15 K, 100 kPa | 0.4136
373.15 K, 100 kPa | 0.3729
373.15 K, 800 kPa | 0.3773
373.15 K, 1600 kPa | 0.3818
373.15 K, 2400 kPa | 0.3851
373.15 K, 3200 kPa | 0.3906
393.15 K, 1600 kPa | 0.3216
413.15 K, 1600 kPa | 0.279
433.15 K, 1600 kPa | 0.2328
453.15 K, 1600 kPa | 0.2072
473.15 K, 1600 kPa | 0.174

Cc1ccccc1 [toluene]
Details | viscosity [mPa·s]
313.15 K, 100 kPa | 0.4651
323.15 K, 100 kPa | 0.4158
333.15 K, 100 kPa | 0.3758
333.15 K, 800 kPa | 0.3839
333.15 K, 1600 kPa | 0.3889
333.15 K, 2400 kPa | 0.3955
333.15 K, 3200 kPa | 0.4008
343.15 K, 100 kPa | 0.3428
353.15 K, 100 kPa | 0.3137
363.15 K, 100 kPa | 0.2901
373.15 K, 100 kPa | 0.268
373.15 K, 800 kPa | 0.2706
373.15 K, 1600 kPa | 0.2742
373.15 K, 2400 kPa | 0.278
373.15 K, 3200 kPa | 0.2822
393.15 K, 1600 kPa | 0.2397
413.15 K, 1600 kPa | 0.2058
433.15 K, 1600 kPa | 0.1769
453.15 K, 1600 kPa | 0.1517
473.15 K, 1600 kPa | 0.1353

From the NIST ThermoML archive (doi:10.1021/je800635g)
